Reference: ChEMBL document CHEMBL4002646, “Antimalarial Properties of Simplified Kalihinol Analogues” (ACS Med Chem Lett, 2017)

Columns and labels:
[1] = tested on: Plasmodium falciparum; experiment: Antimalarial activity against Plasmodium falciparum 3D7 infected in human O+ erythrocytes after 72 hrs by SYBR green fluorescence-based method; format: functional, cell-based
[2] = tested on: Plasmodium falciparum; experiment: Antimalarial activity against chloroquine-resistant Plasmodium falciparum Dd2 infected in human O+ erythrocytes after 72 hrs by SYBR green fluorescence-based method; format: functional, cell-based
[3] = tested on: Plasmodium falciparum; experiment: Antimalarial activity against chloroquine-resistant Plasmodium falciparum FCR-3 ATCC 30932 infected in human RBC after 72 hrs by Geimsa staining based microscopic method; format: functional; details: FCR-3/Gambia ATCC 30932, 72 h
[4] = tested on: Plasmodium falciparum; experiment: Antimalarial activity against chloroquine-resistant Plasmodium falciparum W2 infected in human RBC after 72 hrs; format: functional; details: W2, 72 h
[5] = Plasmodium falciparum, 3D7, 72 h
[6] = Plasmodium falciparum, Dd2, 72 h

SMILES	IC50 [1, 5]	IC50 [2, 6]	further results
CC(C)(Cl)[C@@H]1CC[C@](C)([C@H]2CC[C@](C)(C#N)[C@H]3CC[C@@](C)(O)[C@H](C#N)[C@@H]32)O1	8.4 nM	4.6 nM	
CC(C)(O)C[C@@H]1[C@@]2(C)CCCC(C)(C)[C@@H]2CC[C@]1(C)C#N	244 nM	416 nM	
CC(C)[C@H]1CC[C@@](C)(C#N)[C@H]2CC[C@@](C)(C#N)[C@H](O)[C@H]12	1150 nM	958 nM	
CC1=C[C@H]2[C@H](CC1)[C@@](C)(C#N)CC[C@@H]2[C@@]1(C)CC[C@](C#N)(C(C)C)O1	175 nM	123 nM	
CC1(C)O[C@@](C)([C@H]2CC[C@](C)(C#N)[C@H]3CC[C@@](C)(O)[C@H](C#N)[C@@H]32)CC[C@@H]1Cl			IC50 [3]: 1.2 nM
CC(C)[C@H]1CC[C@@](C)(C#N)[C@H]2CC[C@@](C)(O)[C@H](C#N)[C@H]12	2.9 nM	31 nM	
CC(C)(C#N)C[C@@H]1[C@@]2(C)CCCC(C)(C)[C@@H]2CC[C@]1(C)C#N	1.9 nM	1.6 nM	
CC(C)[C@H]1CC[C@](C)(C#N)[C@H]2CC[C@@](C)(C#N)[C@H](O)[C@H]12	15 nM		IC50 [2]: 17 nM
CC(C)[C@H]1CC[C@](C)(C#N)[C@H]2CC[C@@](C)(O)[C@H](C#N)[C@H]12	12 nM	16 nM	
CC1=C[C@@]2(O)[C@@H](CC1)[C@@](C)(C#N)CC[C@@H]2[C@@]1(C)CC[C@@H](C(C)(C)C#N)O1			IC50 [3]: 80 nM
C[C@@H]1C[C@@H]2C[C@H](C)[C@H]3CC[C@](C)(C#N)[C@H]4CC[C@@H]([C@@H]2[C@H]34)[C@]1(C)C#N		1.6 nM	IC50 [4]: 13 nM
CC1=C[C@@H]2[C@@H](C(C)C)CC[C@@](C)(C#N)[C@@H]2CC1 (racemic)	180 nM	45 nM	
CC1=C[C@@H]2[C@@H](C(C)C)CC[C@](C)(C#N)[C@H]2CC1 (racemic)	705 nM	247 nM	
CC(C)[C@H]1CC[C@](C)(C#N)[C@H]2CC[C@@](C)(C#N)[C@H](O)[C@H]12 (racemic)			IC50 [1]: 27 nM; IC50 [2]: 46 nM
C[C@]1(C#N)CC[C@H](CCO)[C@H]2[C@@H](C#N)[C@](C)(O)CC[C@@H]21 (racemic)	302 nM	205 nM	
